Experimental findings from US20230381142A1, “ANTILEISHMANIAL COMPOUNDS, COMPOSITIONS AND USE THEREOF” (TRUSTEES OF BOSTON UNIVERSITY, priority 2022, published 2023) are described below.

The test system of the first series is L. donovani intracellular amastigotes infecting THP-1 macrophages. Put plainly: GSK intramacrophage L. donovani assay (LD AMMAC, inMac; Assay Conditions C). The format is cell-based. The settings on record: Leishmania donovani; THP-1 cells; values marked c; read-out: L. donovani amastigotes EC50 (THP-1 cells). On the procedure:
Assay Conditions C: The intramacrophage Leishmania donovani activity assay was performed as described in Antimicrob Agents Chemother (2013) 57(7):2913-22.
(§1) The intramacrophage Leishmania donovani activity assay (LD AMMAC) at GlaxoSmithKline was performed as described.
(§2) Given the literature precedents described above and the apparent narrow tolerance for R^3 substitutions observed in the primary screen compounds, a thorough and methodical assessment was undertaken of tolerated groups at the three points of diversity (R^1/R^2/R^3) for the core. At this stage of the project, all analogues were assessed using a battery of assays performed in-house at GlaxoSmithKline. For antileishmanial activity, GSK's inMac assay was utilized. This assay provides two readouts of compound potency: average number of intracellular amastigotes per infected cell (AMMAC) EC50, percentage of infected cells per well (INFCELL) EC50, as well as a toxicity output derived from the number of host cells (MAC EC50). In addition, compounds were assessed for toxicity against HepG2 cells (HEPG2 EC50). Here, AMMAC EC50 values were focused on for relative potency assessments. […] It should be noted that for all compounds assessed in this project, the measured toxicity against THP-1 macrophages either equaled or exceeded that of HepG2 hepatocytes, therefore the MAC SI is used here as the more conservative estimate of therapeutic index.
On to `COc1ccc(N2C(=O)c3[nH]nc(CC(C)C)c3C2c2c(Cl)cccc2Cl)cc1` (stereo not shown) [BUCMD00797], for which the EC50 stood at 1 µM.
Same read-out and setting: to `CC(C)Cc1n[nH]c2c1C(c1ccccc1Br)N(CCN1CCCC1)C2=O` (stereo not shown) [BUCMD00798] belongs 31.6 µM.
The same measure, in the same setting: to `CC(C)Cc1n[nH]c2c1C(c1ccccc1Cl)N(CCN1CCCC1)C2=O` (stereo not shown) [BUCMD00799] belongs 20 µM; to `COc1ccc(N2C(=O)c3[nH]nc(CC(C)C)c3C2c2ccc(F)cc2C)cc1` (stereo not shown) [BUCMD00800], 0.5 µM; to `COc1ccc(N2C(=O)c3[nH]nc(CC(C)C)c3C2c2ccnnc2)cc1` (stereo not shown) [BUCMD00801], over 50 µM.
On to `COc1ccc(N2C(=O)c3[nH]nc(CC(C)C)c3C2c2ccc(F)c(C(F)(F)F)c2)cc1` (stereo not shown) [BUCMD00802], for which the EC50 came out at 5 µM.
The same measure, in the same setting: next, `COc1cc(N2C(=O)c3[nH]nc(CC(C)C)c3C2c2cccc(C(F)(F)F)c2)cc(OC)c1OC` (stereo not shown) [BUCMD00803]: 5 µM; `CC(C)Cc1n[nH]c2c1C(c1cccc(C(F)(F)F)c1)N(c1ccc3ncnn3c1)C2=O` (stereo not shown) [BUCMD00804]: 7.9 µM.
On the same count and under the same terms, next, `CC(C)Cc1n[nH]c2c1C(c1ccc(F)cc1)N(c1cccc(C#N)c1)C2=O` (stereo not shown) [BUCMD00806]: 25.1 µM.

Tested on in another series: not listed separately
Put plainly: GSK inMac assay, host cell toxicity readout (LD MAC). The note with it: human; footnote c; read-out: THP-1 Host Cell CC50. The format is cell-based, human. On the procedure:
as §1, §2
Regarding `COc1ccc(N2C(=O)c3[nH]nc(CC(C)C)c3C2c2c(Cl)cccc2Cl)cc1` (stereo not shown) [BUCMD00797], the CC50 was 2.5 µM.
Still for that read-out and setting: next, `CC(C)Cc1n[nH]c2c1C(c1ccccc1Br)N(CCN1CCCC1)C2=O` (stereo not shown) [BUCMD00798]: over 50 µM; `CC(C)Cc1n[nH]c2c1C(c1ccccc1Cl)N(CCN1CCCC1)C2=O` (stereo not shown) [BUCMD00799]: over 50 µM.
Same read-out and setting: next, `COc1ccc(N2C(=O)c3[nH]nc(CC(C)C)c3C2c2ccc(F)cc2C)cc1` (stereo not shown) [BUCMD00800]: 25.1 µM; `COc1ccc(N2C(=O)c3[nH]nc(CC(C)C)c3C2c2ccnnc2)cc1` (stereo not shown) [BUCMD00801]: over 50 µM.
On the same count and under the same terms, next, `COc1ccc(N2C(=O)c3[nH]nc(CC(C)C)c3C2c2ccc(F)c(C(F)(F)F)c2)cc1` (stereo not shown) [BUCMD00802]: 25.1 µM.
Regarding `COc1cc(N2C(=O)c3[nH]nc(CC(C)C)c3C2c2cccc(C(F)(F)F)c2)cc(OC)c1OC` (stereo not shown) [BUCMD00803], the CC50 is 12.6 µM.
Still for that read-out and setting: next, `CC(C)Cc1n[nH]c2c1C(c1cccc(C(F)(F)F)c1)N(c1ccc3ncnn3c1)C2=O` (stereo not shown) [BUCMD00804]: at least 50.1 µM; `CC(C)Cc1n[nH]c2c1C(c1ccc(F)cc1)N(c1cccc(C#N)c1)C2=O` (stereo not shown) [BUCMD00806]: over 50 µM.

The series is the same for the next values; noted with them: human; host THP-1 cells.
Molecule `COc1ccc(N2C(=O)c3c(c(CC(C)C)nn3C)C2c2ccc(Br)cc2)cc1` (stereo not shown) [CMLD006598] registered a CC50 of at least 50.1 µM.

Another series has as its system L. donovani intracellular amastigotes in B10R cells. Description: UCSD L. donovani infection assay (Assay Conditions D). The format is cell-based. The note with it: B10R cells. The procedure: (§3) Assay Conditions D: B10R cells (CVCL_0155) were seeded at 300 cells/well, and L. donovani WT promastigotes in stationary phase (7th day after passage) were added at 6,000 parasites/well (ratio of 20 parasites/cell). Both cells and parasites were seeded in DMEM High-Glucose medium (Gibco, cat. no. 11995065) containing 5% Fetal Bovine Serum (Sigma-Aldrich, cat. no. F2442) and 1% Penicillin-Streptomycin (Gibco, cat. no. 15140122). Cells and parasites were incubated in the presence of the compounds for 72 h at 37° C. and 5% C02. Plates were then fixed with 4% formaldehyde solution for at least 1 h, then washed with 1×PBS and stained with 5 μg/mL DAPI. Plates were read using an ImageXpress microscope (Molecular Devices) and analyzed by MetaXpress software (Molecular Devices) using a custom module optimized for this assay. […] Compounds were tested in a 10-point 2-fold serial dilution in 3 technical replicates, and 2 biological replicates. After 72 h, plates were fixed and stained with DAPI as described above. Images were acquired on an ImageXpress microscope, and analyzed using the MetaXpress custom module.
as §3, with “Compounds were obtained as 0.2 μmoles of dried film for primary single point screening. Each compound was diluted in DMSO to 10 μM final testing concentration. These compounds were tested in 2 biological replicates. The compounds were pre-spotted onto 384-well assay plates in single concentration.” for “Assay Conditions D:”, “CO2.” for “C02.”, “module. The DRCs were plotted, half-effective concentration (EC50) and half-cytotoxic concentration (CC50) were calculated using GraphPad Prism Software, version 6.05 (GraphPad Software, San Diego, CA).” for “module.”
In the case of `Cc1ccsc1C1c2c(CC(C)C)n[nH]c2C(=O)N1c1ccn(C)n1` (stereo not shown) [BUCMD00660], the “L. donovani amastigotes EC75 (μM, B10R cells)” value is over 10 µM.
Same read-out and setting: next, `CC(C)Cc1n[nH]c2c1C(c1ccccc1C(F)(F)F)N(c1ccn(C)n1)C2=O` (stereo not shown) [BUCMD00661]: over 10 µM; `CC(C)Cc1n[nH]c2c1C(c1sccc1Br)N(c1ccn(C)n1)C2=O` (stereo not shown) [BUCMD00662]: over 10 µM; `CCn1cc(N2C(=O)c3[nH]nc(CC(C)C)c3C2c2ccc(F)cc2C)cn1` (stereo not shown) [BUCMD00663]: 4.0 µM.
The same measure, in the same setting: to `CCn1cc(N2C(=O)c3[nH]nc(CC(C)C)c3C2c2ccc(Br)cc2F)cn1` (stereo not shown) [BUCMD00664] belongs over 10 µM; to `CCn1cc(N2C(=O)c3[nH]nc(CC(C)C)c3C2c2ccc(F)cc2Cl)cn1` (stereo not shown) [BUCMD00665], over 10 µM.
The same measure, in the same setting: next, `CCn1cc(N2C(=O)c3[nH]nc(CC(C)C)c3C2c2ccc(Cl)cc2F)cn1` (stereo not shown) [BUCMD00666]: over 10 µM; `CCn1cc(N2C(=O)c3[nH]nc(CC(C)C)c3C2c2ccccc2C)cn1` (stereo not shown) [BUCMD00667]: over 10 µM.
In the case of `CCn1cc(N2C(=O)c3[nH]nc(CC(C)C)c3C2c2ccccc2Cl)cn1` (stereo not shown) [BUCMD00668], the “L. donovani amastigotes EC75 (μM, B10R cells)” value was determined as 5.8 µM.
On the same count and under the same terms, to `CCn1cc(N2C(=O)c3[nH]nc(CC(C)C)c3C2c2ccc(F)cc2F)cn1` (stereo not shown) [BUCMD00670] belongs over 10 µM.
Same read-out and setting: to `CCn1cc(N2C(=O)c3[nH]nc(CC(C)C)c3C2c2sccc2C)cn1` (stereo not shown) [BUCMD00672] belongs 6.9 µM; to `CC(C)Cc1n[nH]c2c1C(c1ccc(F)cc1Cl)N(c1cnn(C(C)C)c1)C2=O` (stereo not shown) [BUCMD00674], 10.0 µM; to `CC(C)Cc1n[nH]c2c1C(c1ccc(Cl)cc1F)N(c1cnn(C(C)C)c1)C2=O` (stereo not shown) [BUCMD00675], over 10 µM.
On to `CC(C)Cc1n[nH]c2c1C(c1ccccc1Cl)N(c1cnn(C(C)C)c1)C2=O` (stereo not shown) [BUCMD00676], for which the “L. donovani amastigotes EC75 (μM, B10R cells)” value was over 10 µM.
With `Cc1ccccc1C1c2c(CC(C)C)n[nH]c2C(=O)N1c1cnn(C(C)C)c1` (stereo not shown) [BUCMD00677], the “L. donovani amastigotes EC75 (μM, B10R cells)” value is over 10 µM.
The same measure, in the same setting: next, `CC(C)Cc1n[nH]c2c1C(c1ccc(F)cc1F)N(c1cnn(C(C)C)c1)C2=O` (stereo not shown) [BUCMD00678]: over 10 µM.
As for `CC(C)Cc1n[nH]c2c1C(c1ccccc1C(F)(F)F)N(c1cnn(C(C)C)c1)C2=O` (stereo not shown) [BUCMD00679], the “L. donovani amastigotes EC75 (μM, B10R cells)” value turned out to be 10.4 µM.
Still for that read-out and setting: next, `Cc1ccsc1C1c2c(CC(C)C)n[nH]c2C(=O)N1c1cnn(C(C)C)c1` (stereo not shown) [BUCMD00680]: over 10 µM; `Cc1cc(F)ccc1C1c2c(CC(C)C)n[nH]c2C(=O)N1c1cncc(F)c1` (stereo not shown) [BUCMD00693]: over 10 µM; `CC(C)Cc1n[nH]c2c1C(c1ccccc1Cl)N(c1cncc(F)c1)C2=O` (stereo not shown) [BUCMD00696]: over 10 µM.
The same measure, in the same setting: next, `Cc1ccccc1C1c2c(CC(C)C)n[nH]c2C(=O)N1c1cncc(F)c1` (stereo not shown) [BUCMD00697]: 2.6 µM; `CC(C)Cc1n[nH]c2c1C(c1ccc(F)cc1F)N(c1cncc(F)c1)C2=O` (stereo not shown) [BUCMD00698]: 2.3 µM; `Cc1ccsc1C1c2c(CC(C)C)n[nH]c2C(=O)N1c1cncc(F)c1` (stereo not shown) [BUCMD00702]: 7.3 µM.
Regarding `CC(C)Cc1n[nH]c2c1C(c1ccccc1F)N(c1ccc(C(=O)N3CCCC3)cc1)C2=O` (stereo not shown) [BUCMD00715], the “L. donovani amastigotes EC75 (μM, B10R cells)” value is over 10 µM.
The same measure, in the same setting: next, `CC(C)Cc1n[nH]c2c1C(c1ccc(F)c(F)c1)N(c1ccc(C(=O)N3CCCC3)cc1)C2=O` (stereo not shown) [BUCMD00716]: over 10 µM.
As to `CC(C)Cc1n[nH]c2c1C(c1ccccc1Cl)N(c1ccc(N3CCN(C)CC3)nc1)C2=O` (stereo not shown) [BUCMD00720], the “L. donovani amastigotes EC75 (μM, B10R cells)” value was determined as 5.1 µM.
The same measure, in the same setting: to `Cc1ccccc1C1c2c(CC(C)C)n[nH]c2C(=O)N1c1ccc(N2CCN(C)CC2)nc1` (stereo not shown) [BUCMD00721] belongs 5.0 µM; to `Cc1cc(F)ccc1C1c2c(CC(C)C)n[nH]c2C(=O)N1c1ccc(C(=O)N2CCCC2)cc1` (stereo not shown) [BUCMD00726], over 10 µM.
Same read-out and setting: next, `CC(C)Cc1n[nH]c2c1C(c1ccccc1Cl)N(c1ccc(C(=O)N3CCCC3)cc1)C2=O` (stereo not shown) [BUCMD00727]: over 10 µM; `COc1ncc(N2C(=O)c3[nH]nc(CC(C)C)c3C2c2ccc(Cl)cc2F)cc1F` (stereo not shown) [BUCMD00731]: over 10 µM.
On the same count and under the same terms, next, `COc1ncc(N2C(=O)c3[nH]nc(CC(C)C)c3C2c2ccccc2Cl)cc1F` (stereo not shown) [BUCMD00732]: 1.9 µM; `COc1ncc(N2C(=O)c3[nH]nc(CC(C)C)c3C2c2ccccc2C)cc1F` (stereo not shown) [BUCMD00733]: 1.0 µM; `COc1ncc(N2C(=O)c3[nH]nc(CC(C)C)c3C2c2ccc(F)cc2F)cc1F` (stereo not shown) [BUCMD00734]: 1.5 µM.
As for `C#CCCCCOc1ccc(N2C(=O)c3[nH]nc(CC(C)C)c3C2c2ccc(F)cc2)cn1` (stereo not shown) [BUCMD00739], the “L. donovani amastigotes EC75 (μM, B10R cells)” value is over 10 µM.

Staying with this series, now noted: B10R cells; footnote d.
Regarding `CCn1cc(N2C(=O)c3[nH]nc(CC(C)C)c3C2c2ccc(F)cc2Br)cn1` (stereo not shown) [BUCMD00669], the “L. donovani amastigotes EC75 (B10R cells)” value came out at 0.7 µM.
Still for that read-out and setting: to `CC(C)Cc1n[nH]c2c1C(c1ccc(Cl)cc1F)N(c1cncc(F)c1)C2=O` (stereo not shown) [BUCMD00695] belongs 0.5 µM.
